The values that follow come from patent US20120029038A1, “ANIMAL ECTOPARASITE-CONTROLLING AGENT” (SUMITOMO CHEMICAL COMPANY, LIMITED, priority 2010, published 2012).

The mortality is the percentage killed. A low value points to more survivors.

What all share (assay type): in vivo
Test [1] deals with cat fleas (Ctenocephalides felis). Briefly: Dropping application against mouse-infested cat fleas. As to conditions: 0.5% w/v solution 200 μL dropwise along dorsal line, 2 days later. As to the method: The present hydrazide compound (8) (25 mg) was dissolved in propylene carbonate (5 mL) to prepare a 0.5% w/v solution. Said solution (200 μL) was applied dropwise along the dorsal line of a mouse with a pipette. To a control group, propylene carbonate (200 μL) alone was applied. Each application was repeated 3 times per group.
After the dropping application, 20 cat fleas were deposited on each mouse. Two (2) days later, the number of dead cat fleas was examined and the mortality was calculated by the following formula:
(§1) Mortality(%)=100×(number of dead cat fleas/number of cat fleas tested)

Test [2] has the same test system. Briefly: Dropping application against cat-infested cat fleas. As to the method:
The previous day before dropping application, 50 test fleas (cat flea adults) were deposited on a cat. Before the dropping application, infested fleas were counted.
Each (0.375 g or 1.5 g) of the present hydrazide compounds (5) and (8) and Comparative compound (52) was dissolved in diethylene glycol monoethyl ether (6.0 g) to prepare a test solution. Said test solution was directly dropped on the skin of the neck and back of the cat while pushing aside fur thereon on at a rate of 0.1 ml per 1 kg of the cat's body weight (dose amount: 5 or 20 mg/kg). This is referred to as a test group. On the other hand, diethylene glycol monoethyl ether alone was applied dropwise to a placebo group.
Two (2) days after the application, the number of living fleas, which were infesting the cats, was examined. When the examination was completed, all infested fleas were removed from the cats.
Fourteen (14) days and 28 days later, 50 test fleas were re-deposited on each cat. Two (2) days after the re-deposit, the number of living fleas, which were infesting the cats, was examined. When the examination was completed, all infested fleas were removed from the cats. The infestation rate and control rate were calculated by the following formulae: […]
(§2) (i) Method of calculating infestation rate and control rate at the initial stage (2 days) after the application:
Infestation rate(%) at X days after application=(number of living fleas at X days/number of living fleas before application)×100
(§3) Control rate(%) at X days after application=(infestation rate of test group before application−infestation rate of test group at X days)/infestation rate of test group before application×100
(§4) (ii) Method of calculating infestation rate and control rate at 16 days and 30 days after the application:
Infestation rate(%) at X days after application−(number of living fleas at X days/number of fleas deposited)×100
(§5) Control rate(%) at X days after the application (infestation rate of placebo group at X days−infestation rate of test group at X days)/infestation rate of placebo group at X days×100
(§6) In addition, if an infestation rate of a test group is higher than a placebo group, then the control rate is deemed to be 0%.

For test [3], the system named is ticks (Haemaphysalis longicornis). Briefly: Dropping application against dog-infested ticks. As to conditions: dog (beagle), 20 mg/kg. As to the method: The previous day before dropping application, 100 test ticks (Haemaphysalis longicornis, young ticks) were deposited on a dog (beagle). Before the dropping application, infested ticks were counted.
Each (1.5 g) of the present hydrazide compounds (5) and (8) was dissolved in diethylene glycol monoethyl ether (6.0 g) to prepare a test solution. Said test solution was directly dropped on the skin of the neck and back of the dog while pushing aside fur thereon at a rate of 0.1 ml per kg of the dog's body weight (dose amount: 20 mg/kg). This is referred to as a test group. On the other hand, diethylene glycol monoethyl ether alone was applied dropwise to a placebo group.
Two (2) days after the application, the number of living ticks, which were infesting the dogs, was examined. When the examination was completed, all infested ticks were removed from the dogs.
Fourteen (14) days and 28 days later, 100 test ticks were re-deposited on each dog. Two (2) days after the re-deposit, the number of living ticks, which were infesting the dogs, was examined. When the examination was completed, all infested ticks were removed from the dogs. The infestation rate and control rate were calculated by the following formulae: […]
as §2
Infestation rate(%) at X days after application=(number of living ticks at X days/number of living ticks before application)×100
as §3, §4
Infestation rate(%) at X days after application=(number of living ticks at X days/number of ticks deposited)×100
as §5, §6

For test [4] the test system is unchanged. As to the kind of experiment: Oral administration against dog-infested ticks. As to conditions: oral gelatin capsules, 20 mg/kg. The procedure: Each of the present hydrazide compounds (5) and (8) and Comparative compound (52) was filled into gelatin capsules, and forcibly and orally administered to a dog in a dose amount of 20 mg per 1 kg of the dog's body weight. This is referred to as a test group. On the other hand, gelatin capsules alone were orally administered to a placebo group.
Forty two (42) days later, 100 test ticks were deposited on each dog. Two (2) days after the deposit, the number of living ticks, which were infesting the dogs, was examined. When the examination was completed, all infested ticks were removed from the dogs. The infestation rate and control rate were calculated by the following formulae: […]
Method of calculating infestation rate and control rate at 44 days after the administration:
Infestation rate(%) at X days after administration=(number of living ticks at X days/number of ticks deposited)×100
Control rate(%) at X days after administration (infestation rate of placebo group at X days−infestation rate of test group at X days)/infestation rate of placebo group at X days[…]
as §6

The subject of test [5] is cat fleas (Ctenocephalides felis). As to the kind of experiment: Oral administration against cat-infested cat fleas. As to conditions: oral with cat food. As to the method:
The previous day before oral administration, 50 test fleas (cat flea adults) were deposited on a cat. Before the oral administration, infested fleas were counted.
Each of the present hydrazide compounds (5) and (8) was mixed with a cat food, and orally administered to a cat in a dose amount of 5 or 20 mg per 1 kg of the cat's body weight. This is referred to as a test group. On the other hand, the cat food alone was fed to a placebo group.
Two (2) days after the administration, the number of living fleas, which were infesting the cats, was examined. When the examination was completed, all infested fleas were removed from the cats.
Forty two (42) days later, 50 test fleas were re-deposited on each cat. Two (2) days after the re-deposit, the number of living fleas, which were infesting the cats, was examined. When the examination was completed, all infested fleas were removed from the cats. The infestation rate and control rate were calculated by the following formulae: […]
(i) Method of calculating infestation rate and control rate at the initial stage (2 days) after the administration:
Infestation rate(%) at X days after administration=(number of living fleas at X days/number of living fleas before administration)×100
Control rate(%) at X days after administration (infestation rate of test group before administration−infestation rate of test group at X days)/infestation rate of test group before administration×100
(ii) Method of calculating infestation rate and control rate at 44 days after the administration:
Infestation rate(%) at X days after administration=(number of living fleas at X days/number of fleas deposited)×100
Control rate(%) at X days after administration (infestation rate of placebo group at X days−infestation rate of test group at X days)/infestation rate of placebo group at X days×100
as §6

Test [6] shares this test system. Briefly: Pesticidal activity on cat fleas in filter paper test. As to conditions: 48 h. As to the method:
Each (11.3 mg) of the present hydrazide compounds (5) and (8) was dissolved in acetone (5 mL), and this acetone solution ([…]) was uniformly applied onto one side of a filter paper (TOYO No. 2; diameter 3.8 cm; the surface area of the filter paper was 11.3 cm^2, and thus the amount of the present hydrazide compound applied was 400 mg/m^2). After drying, said filter paper was placed on the inside of the lid of a 100 mL vial container. Into the vial container, 20 cat flea adults were released and the lid was closed. The vial container was inverted to force the cat fleas to contact the filter paper. Two (2) days later, the number of dead fleas was examined and the mortality was calculated by the following formula:
as §1

As to `CN(NC(=O)CCC(F)(F)F)c1cc(C2=NOC(c3cc(Cl)cc(Cl)c3)(C(F)(F)F)C2)ccc1Cl` (stereo not shown) [Compound (8), N′-methyl-N′-{2-chloro-5-[5-(3,5-dichlorophenyl)-5-trifluoromethyl-4,5-dihydroisoxazol-3-yl]phenyl}-4,4,4-trifluorobutyrohydrazide], in test [1], the Mortality is at least 70%. For the same compound, in test [2] (5 mg/kg), the “Flea control rates (%) at 2 days after the application” value worked out at 100%, the “Flea control rates (%) at 16 days after the application” value is given as 100% and the “Flea control rates (%) at 30 days after the application” value was 97%. Also, in test [2] (20 mg/kg), the “Flea control rates (%) at 2 days after the application” value is 100%, the “Flea control rates (%) at 16 days after the application” value is 100% and the “Flea control rates (%) at 30 days after the application” value was 100%. For the same compound, the “Tick control rates (%) at 2 days after the application” value in test [3] (2 days) is listed as 31%. In test [3] (16 days), the “Tick control rates (%) at 16 days after the application” value came to 100%. The “Tick control rates (%) at 30 days after the application” value in test [3] (30 days) is given as 100%. Further, the “Tick control rates (%) at 44 days after the administration” value in test [4] was 93%. For the same compound, in test [5] (5 mg/kg), the “Flea control rates (%) at 2 days after the administration” value was 100% and the “Flea control rates (%) at 44 days after the administration” value is 90%. In addition, in test [5] (20 mg/kg), the “Flea control rates (%) at 2 days after the administration” value was 100% and the “Flea control rates (%) at 44 days after the administration” value stood at 100%. The compound further had a mortality at 400 mg/m2 in test [6] of at least 90%.
